# Patent US20260216170A1, “TETRAHYDROISOQUINOLINE HETEROBIFUNCTIONAL BCL-XL DEGRADERS” (Treeline Biosciences, Inc., priority 2023, published 2026)
# Target: T1, Human BCL-XL protein (N-terminal HiBiT tagged BCL-XL expressed in HT1080 cells) (Homo sapiens, UniProt Q07817)
# T1 construct: expressed in transfected cells; host or cells: HT-1080 (ATCC CCL-121), stably transduced with lentivirus pLV-UBC-N-HiBiT-BCL-XL-PGK-puro and selected with puromycin
# Test: HiBiT Based Degradation Assay
# Assay type: cell-based
# Settings: 24 hours incubation; for DC50: BCL-XL degradation, HT1080 cells expressing N-HiBiT-BCL-XL, normalized with DMSO control, geometric mean for multiple data points, read-out: EC50 (24 h); for Ymin (24 h): bottom of BCL-XL degradation curve (remaining HiBiT-BCL-XL signal vs DMSO control), HT1080 cells
# Description: HiBiT Based Degradation Assay
# Human BCL-XL protein coding open reading frame fused with N-terminal HiBiT coding sequence (N-HiBiT-BCL-XL) was synthesized from Integrated DNA Technologies (IDT). Next, N-HiBiT-BCL-XL sequence was cloned into pLV-UBC-PGK-Puro, a lentivirus plasmid purchased from Vectorbuilder, to generate pLV-UBC-N-HiBiT-BCL-XL-PGK-puro. Lentiviral particles were generated from Lenti-X™ 293T cells (Clontech) by co-transfection of pLV-UBC-N-HiBiT-BCL-XL-PGK-puro plasmids and lentiviral packaging plasmid mix (Cellecta). HT-1080 [HT1080](ATCC CCL-121™) cells were infected with the lentivirus, and HT1080 cells stably integrated with the lentiviral vector were established by incubation with 1 μg/mL puromycin (Thermofisher). HT1080 cells expressing N-terminal HiBiT tagged BCL-XL were dispensed into 384-well plates pre-spotted with compounds at varying concentrations. Three thousand cells were seeded into each well in 40 μL of RPMI 1640 media. After 24 hours of incubation at 37° C. with 5% CO2, 30 μL of the NANO-GLO® HiBiT Lytic Detection System working solution (Promega) was added to each well and incubated at room temperature for 30 min. After incubation, luminescence was read on a PHERAstar FSX Plate Reader (BMG). BCL-XL degradation at each indicated concentration was normalized with DMSO control. The BCL-XL degradation curves were plotted using a four-parameter logistic model. For compounds displaying hook effects, curve fitting was performed using bottom point of hook curves (i.e., the point of Ymin) as bottom plateau to calculate EC50. For compounds with multiple data points, the geometric mean is presented.
# T1 sequence (Q07817 whole entry): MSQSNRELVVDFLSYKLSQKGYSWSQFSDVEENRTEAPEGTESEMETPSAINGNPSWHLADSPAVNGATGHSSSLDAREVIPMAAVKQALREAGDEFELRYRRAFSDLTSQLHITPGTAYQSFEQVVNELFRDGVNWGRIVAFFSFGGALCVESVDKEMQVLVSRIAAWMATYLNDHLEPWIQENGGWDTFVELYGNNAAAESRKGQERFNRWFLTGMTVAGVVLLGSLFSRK
SMILES,DC50,Ymin (24 h)
"Cc1c(OC[C@H]2C[C@@H]2C2CCN(CC(=O)Nc3ccc4c(C5CCC(=O)NC5=O)nn(C)c4c3)CC2)cccc1-c1ccc(N2CCc3cccc(C(=O)Nc4nc5ccccc5s4)c3C2)nc1C(=O)O (single isomer, unassigned) [Compound 1001b]",10 to 100 nM,B (30% ≤ Ymin < 50%)
COc1c(NC(=O)CN2CC[C@H](CCCOc3ccc(-c4ccc(N5CCc6cccc(C(=O)Nc7nc8ccccc8s7)c6C5)nc4C(=O)O)c(C)c3)C[C@@H]2C)ccc2c(C3CCC(=O)NC3=O)nn(C)c12 (stereo partly shown) [Compound 210b],10 to 100 nM,A (Ymin < 30%)
Cc1cc2c(C3CCC(=O)NC3=O)nn(C)c2cc1NC(=O)CN1CCC2(CC1)CC(COc1cccc(-c3ccc(N4CCc5cccc(C(=O)Nc6nc7ccccc7s6)c5C4)nc3C(=O)O)c1C)C2 (stereo not shown) [Compound 118],100 to 1000 nM,B (30% ≤ Ymin < 50%)
C[C@@H]1C[C@@H](CCCOc2cccc(-c3ccc(N4CCc5cccc(C(=O)Nc6nc7ccccc7s6)c5C4)nc3C(=O)O)c2C(F)(F)F)CCN1CC(=O)Nc1ccc2c(C3CCC(=O)NC3=O)nn(C)c2c1 (stereo partly shown) [Compound 215c],10 to 100 nM,B (30% ≤ Ymin < 50%)
Cc1c(-c2ccc(N3CCc4cccc(C(=O)Nc5nc6ccccc6s5)c4C3)nc2C(=O)O)cccc1N(C)CCCC1CCN(CC(=O)Nc2ccc3c(C4CCC(=O)NC4=O)nn(C)c3c2)CC1 (stereo not shown) [Compound 220],10 to 100 nM,C (50% ≤ Ymin < 70%)
"Cc1c(OC[C@H]2C[C@H]2CC2CCN(CC(=O)Nc3ccc4c(C5CCC(=O)NC5=O)nn(C)c4c3)CC2)cccc1-c1ccc(N2CCc3cccc(C(=O)Nc4nc5ccccc5s4)c3C2)nc1C(=O)O (single isomer, unassigned) [Compound 1004d]",10 to 100 nM,B (30% ≤ Ymin < 50%)
COc1c(NC(=O)CN2CCC(CCCOc3ccc(-c4ccc(N5CCc6cccc(C(=O)Nc7nc8ccccc8s7)c6C5)nc4C(=O)O)c(C(F)(F)F)c3)CC2)ccc2c(C3CCC(=O)NC3=O)nn(C)c12 (stereo not shown) [Compound 142],10 to 100 nM,A (Ymin < 30%)
C[C@H]1C[C@H](CCCOc2ccc(-c3ccc(N4CCc5cccc(C(=O)Nc6nc7ccccc7s6)c5C4)nc3C(=O)O)c(C(F)(F)F)c2)CCN1CC(=O)Nc1ccc2c(C3CCC(=O)NC3=O)nn(C)c2c1 (stereo partly shown) [Compound 209b],10 to 100 nM,B (30% ≤ Ymin < 50%)
"Cc1c(OC[C@@H]2C[C@H]2C2CCN(CC(=O)Nc3ccc4c(C5CCC(=O)NC5=O)nn(C)c4c3)CC2)cccc1-c1ccc(N2CCc3cccc(C(=O)Nc4nc5ccccc5s4)c3C2)nc1C(=O)O (single isomer, unassigned) [Compound 1001a]",10 to 100 nM,B (30% ≤ Ymin < 50%)
Cc1cc(OCCC[C@@H]2CCN(CC(=O)Nc3ccc4c(C5CCC(=O)NC5=O)nn(C)c4c3)[C@@H](C)C2)ccc1-c1ccc(N2CCc3cccc(C(=O)Nc4nc5ccccc5s4)c3C2)nc1C(=O)O (stereo partly shown) [Compound 210a],10 to 100 nM,A (Ymin < 30%)
Cc1c(OCCC[C@H]2CCN(CC(=O)Nc3ccc4c(C5CCC(=O)NC5=O)nn(C)c4c3)[C@H](C)C2)cccc1-c1ccc(N2CCc3ccnc(C(=O)Nc4nc5ccccc5s4)c3C2)nc1C(=O)O (stereo partly shown) [Compound 216c],10 to 100 nM,B (30% ≤ Ymin < 50%)
"Cc1cc(OC[C@H]2C[C@H]2CC2CCN(CC(=O)Nc3ccc4c(C5CCC(=O)NC5=O)nn(C)c4c3)CC2)ccc1-c1ccc(N2CCc3cccc(C(=O)Nc4nc5ccccc5s4)c3C2)nc1C(=O)O (single isomer, unassigned) [Compound 1002b]",< 10 nM,B (30% ≤ Ymin < 50%)
Cn1nc(C2CCC(=O)NC2=O)c2ccc(NC(=O)CN3CCC4(CC3)CC(Oc3ccc(-c5ccc(N6CCc7cccc(C(=O)Nc8nc9ccccc9s8)c7C6)nc5C(=O)O)c(C(F)(F)F)c3)C4)nc21 (stereo not shown) [Compound 193],10 to 100 nM,B (30% ≤ Ymin < 50%)
Cc1cc(OCCC[C@@H]2CCN(CC(=O)Nc3ccc4c(C5CCC(=O)NC5=O)nn(C)c4c3)[C@H](C)C2)ccc1-c1ccc(N2CCc3ccnc(C(=O)Nc4nc5ccccc5s4)c3C2)nc1C(=O)O (stereo partly shown) [Compound 219d],< 10 nM,A (Ymin < 30%)
"C[C@@H](COc1ccc(-c2ccc(N3CCc4cccc(C(=O)Nc5nc6ccccc6s5)c4C3)nc2C(=O)O)c(C(F)(F)F)c1)CC1CCN(CC(=O)Nc2ccc3c(C4CCC(=O)NC4=O)nn(C)c3c2)CC1 (single isomer, unassigned) [Compound 130a]",10 to 100 nM,B (30% ≤ Ymin < 50%)
Cc1c(OCC2CC3(CCN(CC(=O)Nc4ccc5c(C6CCC(=O)NC6=O)nn(C)c5c4C(F)(F)F)CC3)C2)cccc1-c1ccc(N2CCc3cccc(C(=O)Nc4nc5ccccc5s4)c3C2)nc1C(=O)O (stereo not shown) [Compound 137],10 to 100 nM,C (50% ≤ Ymin < 70%)
"COc1c(NC(=O)CN2CCC3(CC2)CC(Oc2cccc(-c4ccc(N5CCc6ccnc(C(=O)Nc7nc8ccccc8s7)c6C5)nc4C(=O)O)c2C(F)(F)F)C3)ccc2c(C3CCC(=O)NC3=O)nn(C)c12 (stereo not shown) [Compound 165, 6-(8-(benzo[d]thiazol-2-ylcarbamoyl)-3,4-dihydro-2,7-naphthyridin-2(1H)-yl)-3-(3-((7-(2-((3-(2,6-dioxopiperidin-3-yl)-7-methoxy-1-methyl-1H-indazol-6-yl)amino)-2-oxoethyl)-7-azaspiro[3.5]nonan-2-yl)oxy)-2-(trifluoromethyl)phenyl)picolinic acid]",< 10 nM,B (30% ≤ Ymin < 50%)
"COc1c(NC(=O)CN2CCC3(CC2)CC(COc2ccc(-c4ccc(N5CCc6cccc(C(=O)Nc7nc8ccccc8s7)c6C5)nc4C(=O)O)c(C(F)(F)F)c2)C3)ccc2c(C3CCC(=O)NC3=O)nn(C)c12 (stereo not shown) [Compound 144, 6-(8-(benzo[d]thiazol-2-ylcarbamoyl)-3,4-dihydroisoquinolin-2(1H)-yl)-3-(4-((7-(2-((3-(2,6-dioxopiperidin-3-yl)-7-methoxy-1-methyl-1H-indazol-6-yl)amino)-2-oxoethyl)-7-azaspiro[3.5]nonan-2-yl)methoxy)-2-(trifluoromethyl)phenyl)picolinic acid]",10 to 100 nM,B (30% ≤ Ymin < 50%)
"COc1cc2c(C3CCC(=O)NC3=O)nn(C)c2cc1NC(=O)CN1CCC(CCCOc2ccc(-c3ccc(N4CCc5cccc(C(=O)Nc6nc7ccccc7s6)c5C4)nc3C(=O)O)c(C)c2)CC1 (stereo not shown) [Compound 103, 6-[8-(1,3-benzothiazol-2-ylcarbamoyl)-3,4-dihydro-1H-isoquinolin-2-yl]-3-[4-[3-[1-[2-[[3-(2,6-dioxo-3-piperidyl)-5-methoxy-1-methyl-indazol-6-yl]amino]-2-oxo-ethyl]-4-piperidyl]propoxy]-2-methyl-phenyl]pyridine-2-carboxylic acid]",100 to 1000 nM,B (30% ≤ Ymin < 50%)
"Cc1cc(OCCCC2CCN(CC(=O)Nc3ccc4c(C5CCC(=O)NC5=O)nn(C)c4c3)CC2)ccc1-c1ccc(N2CCc3ccnc(C(=O)Nc4nc5ccccc5s4)c3C2)nc1C(=O)O (stereo not shown) [Compound 141, 6-[8-(1,3-benzothiazol-2-ylcarbamoyl)-3,4-dihydro-1H-2,7-naphthyridin-2-yl]-3-[4-[3-[1-[2-[[3-(2,6-dioxo-3-piperidyl)-1-methyl-indazol-6-yl]amino]-2-oxo-ethyl]-4-piperidyl]propoxy]-2-methyl-phenyl]pyridine-2-carboxylic acid]",< 10 nM,A (Ymin < 30%)
